Assay results published in ChEMBL document CHEMBL3603734, “Design and biological evaluation of novel quinolone-based metronidazole derivatives as potent Cu(2+) mediated DNA-targeting antibacterial agents” (Bioorg Med Chem Lett, 2015).
In brackets after ≈: the same amount, converted by molar mass.

Columns and labels:
Escherichia coli = test: Antibacterial activity against Escherichia coli JM109 after 24 hrs by microbroth dilution method; assay type: functional; conditions: JM109, 24 h
Bacillus = test: Antibacterial activity against Bacillus proteus ATCC 13315 after 24 hrs by microbroth dilution method; assay type: functional; conditions: ATCC 13315, 24 h
Pseudomonas aeruginosa = test: Antibacterial activity against Pseudomonas aeruginosa ATCC 27853 after 24 hrs by microbroth dilution method; assay type: functional; conditions: ATCC 27853, 24 h
Salmonella enterica = test: Antibacterial activity against Salmonella enterica ATCC 14028 after 24 hrs by microbroth dilution method; assay type: functional; conditions: ATCC 14028, 24 h
Staphylococcus aureus [1] = test: Antibacterial activity against methicillin-resistant Staphylococcus aureus N315 after 24 hrs by microbroth dilution method; assay type: functional; conditions: N315, 24 h
Staphylococcus aureus [2] = test: Antibacterial activity against Staphylococcus aureus ATCC 25923 after 24 hrs by microbroth dilution method; assay type: functional; conditions: ATCC 25923, 24 h
Bacillus spizizenii = test: Antibacterial activity against Bacillus subtilis ATCC 6633 after 24 hrs by microbroth dilution method; assay type: functional; conditions: ATCC 6633, 24 h
Micrococcus luteus = test: Antibacterial activity against Micrococcus luteus ATCC 4698 after 24 hrs by microbroth dilution method; assay type: functional; conditions: NCTC 2665, 24 h
Cyberlindnera jadinii = test: Antifungal activity against Candida utilis ATCC 9950 after 24 hrs by microbroth dilution method; assay type: functional; conditions: Williopsis jadinii, ATCC 9950, 24 h
Aspergillus flavus = test: Antifungal activity against Aspergillus flavus ATCC 204304 after 24 hrs by microbroth dilution method; assay type: functional; conditions: ATCC 204304, 24 h
Saccharomyces cerevisiae = test: Antifungal activity against Saccharomyces cerevisiae ATCC 9763 after 24 hrs by microbroth dilution method; assay type: functional; conditions: ATCC 9763, 24 h
Candida albicans = test: Antifungal activity against Candida albicans ATCC 10231 after 24 hrs by microbroth dilution method; assay type: functional; conditions: ATCC 10231, 24 h
Pichia norvegensis = test: Antifungal activity against Candida mycoderma ATCC 9888 after 24 hrs by microbroth dilution method; assay type: functional; conditions: ATCC 9888, 24 h
[3] = Ionization constant, pKa of the compound by UV spectroscopic analysis; assay type: physicochemical

| SMILES | MIC (Escherichia coli) [µg/mL] | MIC (Bacillus) [µg/mL] | MIC (Pseudomonas aeruginosa) [µg/mL] | MIC (Salmonella enterica) [µg/mL] | MIC (Staphylococcus aureus [1]) [µg/mL] | MIC (Staphylococcus aureus [2]) [µg/mL] | MIC (Bacillus spizizenii) [µg/mL] | MIC (Micrococcus luteus) [µg/mL] | MIC (Cyberlindnera jadinii) [µg/mL] | MIC (Aspergillus flavus) [µg/mL] | MIC (Saccharomyces cerevisiae) [µg/mL] | MIC (Candida albicans) [µg/mL] | MIC (Pichia norvegensis) [µg/mL] | pKa [3] |
| --- | --- | --- | --- | --- | --- | --- | --- | --- | --- | --- | --- | --- | --- | --- |
| Cc1ncc([N+](=O)[O-])n1CC(O)CN1CCN(c2cc3c(cc2F)c(=O)c(C(=O)O)cn3C2CC2)CC1 (centres undefined) | 16 (≈ 31.1 µM) | 4 (≈ 7.77 µM) | 0.5 (≈ 0.972 µM) | 4 (≈ 7.77 µM) | 2 (≈ 3.89 µM) | 16 (≈ 31.1 µM) | 4 (≈ 7.77 µM) | 8 (≈ 15.5 µM) | 32 (≈ 62.2 µM) | 16 (≈ 31.1 µM) | 32 (≈ 62.2 µM) | 128 (≈ 249 µM) | 64 (≈ 124 µM) | 6.67 |
| O=C(O)c1cn(C2CC2)c2cc(N3CCNCC3)c(F)cc2c1=O [CIPROFLOXACIN] | – | 1 (≈ 3.02 µM) | 1 (≈ 3.02 µM) | 1 (≈ 3.02 µM) | – | – | 1 (≈ 3.02 µM) | – | – | – | – | – | – | – |
| CCn1cc(C(=O)O)c(=O)c2cc(F)c(N3CCNCC3)cc21 [NORFLOXACIN] | 2 (≈ 6.26 µM) | 8 (≈ 25.1 µM) | 4 (≈ 12.5 µM) | 1 (≈ 3.13 µM) | 2 (≈ 6.26 µM) | 2 (≈ 6.26 µM) | 1 (≈ 3.13 µM) | 2 (≈ 6.26 µM) | – | – | – | – | – | – |
| NC1CCN(c2c(F)cc3c(=O)c(C(=O)O)cn(C4CC4)c3c2Cl)C1 (centres undefined) [CLINAFLOXACIN] | 1 (≈ 2.73 µM) | 0.5 (≈ 1.37 µM) | 1 (≈ 2.73 µM) | 1 (≈ 2.73 µM) | 1 (≈ 2.73 µM) | 0.5 (≈ 1.37 µM) | 0.5 (≈ 1.37 µM) | 0.5 (≈ 1.37 µM) | – | – | – | – | – | – |
| CCn1cc(C(=O)O)c(=O)c2cc(F)c(N3CCN(CC4CO4)CC3)cc21 (centres undefined) | 2 (≈ 5.33 µM) | 4 (≈ 10.7 µM) | 16 (≈ 42.6 µM) | 16 (≈ 42.6 µM) | 2 (≈ 5.33 µM) | 8 (≈ 21.3 µM) | 64 (≈ 170 µM) | 8 (≈ 21.3 µM) | 8 (≈ 21.3 µM) | 1 (≈ 2.66 µM) | 1 (≈ 2.66 µM) | 4 (≈ 10.7 µM) | 1 (≈ 2.66 µM) | – |
| Cc1nc(N2CCCC2)c([N+](=O)[O-])n1CC(O)CNC1CCN(c2c(F)cc3c(=O)c(C(=O)O)cn(C4CC4)c3c2Cl)C1 (centres undefined) | 8 (≈ 12.9 µM) | 0.5 (≈ 0.809 µM) | 0.5 (≈ 0.809 µM) | 8 (≈ 12.9 µM) | 1 (≈ 1.62 µM) | 1 (≈ 1.62 µM) | 1 (≈ 1.62 µM) | 4 (≈ 6.47 µM) | 1 (≈ 1.62 µM) | 2 (≈ 3.24 µM) | 4 (≈ 6.47 µM) | 2 (≈ 3.24 µM) | 4 (≈ 6.47 µM) | 6.54 |
| OC(Cn1cncn1)(Cn1cncn1)c1ccc(F)cc1F [FLUCONAZOLE] | – | – | – | – | – | – | – | – | 8 (≈ 26.1 µM) | 256 (≈ 836 µM) | 16 (≈ 52.2 µM) | 1 (≈ 3.27 µM) | 4 (≈ 13.1 µM) | – |
| Cc1nc(N2CCOCC2)c([N+](=O)[O-])n1CC(O)CNC1CCN(c2c(F)cc3c(=O)c(C(=O)O)cn(C4CC4)c3c2Cl)C1 (centres undefined) | 0.5 (≈ 0.789 µM) | 0.25 (≈ 0.394 µM) | 0.25 (≈ 0.394 µM) | 2 (≈ 3.15 µM) | 0.25 (≈ 0.394 µM) | 0.5 (≈ 0.789 µM) | 4 (≈ 6.31 µM) | 2 (≈ 3.15 µM) | 0.5 (≈ 0.789 µM) | 1 (≈ 1.58 µM) | 1 (≈ 1.58 µM) | 2 (≈ 3.15 µM) | 16 (≈ 25.2 µM) | 6.57 |
| Cc1nc(N2CCCC2)c([N+](=O)[O-])n1CC(O)CN1CCN(c2cc3c(cc2F)c(=O)c(C(=O)O)cn3C2CC2)CC1 (centres undefined) | 64 (≈ 110 µM) | 32 (≈ 54.8 µM) | 2 (≈ 3.43 µM) | 32 (≈ 54.8 µM) | 16 (≈ 27.4 µM) | 64 (≈ 110 µM) | 16 (≈ 27.4 µM) | 128 (≈ 219 µM) | 16 (≈ 27.4 µM) | 32 (≈ 54.8 µM) | 32 (≈ 54.8 µM) | 64 (≈ 110 µM) | 32 (≈ 54.8 µM) | 6.72 |
